Results: publication PMC7180839, “Biophysical Screens Identify Fragments That Bind to the Viral DNA-Binding Proteins EBNA1 and LANA” (Molecules, 2020)
pKd: −log10 of the molar value.

Experiments:
EBNA1 (468–607) = target: T1, EBNA1 (468–607) (Epstein-Barr virus, UniProt P03211); assay: X-ray crystallography, fragment soaked into preformed EBNA1 crystals; assay type: binding, Epstein–Barr virus (EBV); conditions: crystal soak 4 h; 1.3 Å structure, PDB 6VH6; pocket that contacts the DNA phosphate backbone
T1 construct: using purified EBNA1 (468–607) mixed in a 2 μl:2 μl ratio with reservoir solution; made in house
T1 sequence (P03211 468-607): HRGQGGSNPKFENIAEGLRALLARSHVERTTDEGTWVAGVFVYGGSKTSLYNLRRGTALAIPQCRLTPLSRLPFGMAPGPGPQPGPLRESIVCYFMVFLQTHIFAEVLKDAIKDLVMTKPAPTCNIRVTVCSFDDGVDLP
Description: We determined the high-resolution crystal structure of one fragment bound to EBNA1 (Figure 4). We soaked the fragment AC37287 into preformed crystals of EBNA1 (468–607). The crystal of AC37287 diffracted to 1.3 Ångstroms and was solved by isomorphous replacement. The electron density around AC38287 is unambiguous at this resolution (Figure 4A). The aliphatic portion of AC37287 binds into a deep hydrophobic pocket made up of the hydrophobic residues I481, L520, L582, V483 and I593 (Figure 4B). The lactone is sandwiched between residues N519 and T590 within the range of a hydrogen bond of N519 (Figure 4C). This molecule binds in a region that is important for DNA binding (Figure 4D).
Crystals were grown using the vapor diffusion method in 24–48 h using purified EBNA1 (468–607) mixed in a 2 μl:2 μl ratio with reservoir solution (50 mM MES, pH 6.5, 0–150 mM NaCl, and 10 mM DTT). Crystals were transferred to a solution containing 25–30% glycerol and 0.2 μl of 50 mM of AC37287, incubated for 4 h and flash frozen for data collection. Data were collected on the 21BM beamline at the Argonne Light Source (ALS) at Argonne National Laboratory. Data were indexed, reduced, and scaled using HKL3000. The structures were solved by isomorphous replacement. Models were refined in PHENIX, version 1.17, using simulated annealing, minimization, and individual B-factor refinement. […]

[1] = target: T2, EBNA1-CAC (EBNA1 DNA-binding domain) (Epstein-Barr virus, UniProt P03211, C531S/C560S/C591S/C598S); assay: SPR affinity assay, EBNA1-CAC immobilized on CM5 chip via thiol coupling; parameters: species or system Epstein–Barr virus (EBV); conditions: Biacore S200, 1:1 interaction model, global Rmax, fragment 79-900 μM, 5% DMSO, pH 7.1
T2 construct: His-tag-SUMO (N, cleaved yes); made in house; host or cells: Escherichia coli
T2 sequence (P03211 459-607 C531S/C560S/C591S/C598S): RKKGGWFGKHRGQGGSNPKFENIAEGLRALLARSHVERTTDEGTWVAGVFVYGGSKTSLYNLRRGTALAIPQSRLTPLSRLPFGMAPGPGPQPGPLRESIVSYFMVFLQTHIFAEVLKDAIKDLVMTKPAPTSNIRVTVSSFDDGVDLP
Protocol: SPR experiments were performed on a Biacore™ S200 instrument (GE Healthcare). […] As an alternative, we developed a thiol coupling method to immobilize EBNA1 and LANA to the Biacore sensor chip. We synthesized a construct that expressed a version of EBNA1 and LANA DNA-binding domains with the internal cysteines mutated to serine and Cys-Ala-Cys added to the C terminus (EBNA1-CAC and LANA-CAC).
The 1000 fragments from the library were screened at a concentration of 1 mM (5% DMSO). Hits were selected on the basis of the following criteria: a relative binding response normalized with respect to the positive control, no indication that multiple fragments were bound, R > Rmax (R = Response units, Rmax = the maximum binding capacity based on control fragment) and sensorgram shapes consistent with fragment binding (rapid on and off rates). Based on these criteria, 94 EBNA1 fragments and 104 LANA fragments were selected for further validation to measure binding affinities, which were determined to range from 0.2 to >10 mM. […]
To validate fragments from the primary screen, an affinity assay was performed. […] Binding sensorgrams were processed by first subtracting the binding response recorded from the control surface (reference flow cell), followed by solvent correction. […] Affinities were assessed using a global Rmax determined by reference compounds. […]

Row | Compound | fragment binding observed in crystal structure (EBNA1 (468–607)) | pKd [1]
1 | Cc1ccc2oc(=O)cc(O)c2c1 [AC37287] | binds in this pocket of EBNA1 | –
2 | OCCCCn1cnc2cc(Cl)c(Cl)cc21 [SPB07625] | – | 2.68
